The target of the assay is T1, Recombinant human JARID1B/KDM5B (Homo sapiens, UniProt Q9UGL1).
T1 construct: purchased Active Motif 31432; host or cells: Sf9 insect cells
Put plainly: LANCE Ultra TR-FRET JARID1B (KDM5B) demethylase inhibition assay. The conditions noted are these: 0.1 uM of test-compounds, FLAG-JARID1B, 500 nM biotinylated H3K4me3 peptide substrate, 30 min at room temperature. The format is biochemical. The text has this:
FLAG-tagged JARID1B (also known as KDM5B) protein was screened against 49 compounds. For this compound screening, LANCE Ultra time-resolved fluorescence resonance energy transfer (TR-FRET) assay was employed using a europoium (Eu)-labeled antibody that can specifically recognize mono- or dimethylated peptides (H3K4me2/1) and ULight-streptavidin (ULight-SA), a small molecule fluorescent dye. When irradiated at 340 nm, the energy from the Eu donor is transferred to the ULight acceptor dye which, in turn, emits light primarily at 665 nm. The ratio between the intensity of primary emission at 665 nm and that of secondary emission at […] was used to quantify the level of lysine methylation. As JARID1B removes more methyl moieties from tri-methylated substrate peptides (H3K4me3), the ratio increases until the enzyme reaction is terminated. In case, therefore, the compounds disrupt the enzymatic activity completely, the ratio becomes equal to a background value.
Recombinant human JARID1B/KDM5B (accession number NP_006609) of molecular weight 179.9 KDa was expressed in Sf9 insect cells and contains an N-terminal FLAG tag. The enzyme was obtained from Active Motif (Catalog No. 31432). The tri-methylated histone substrate peptide of purity greater than 95% was a synthetic peptide in which the first 21 amino acids correspond to the human histone H3 sequence with three extra amino acids and a biotin motif (GGK-biotin) linked to the C-terminus [sequence: ART-K(Me3)-QTARKSTGGKAPRKQLA-GGK-biotin-OH], (AnaSpec, Fremont, Calif. Catalog. No. ANA-1413). The reference inhibitor compound tranylcypromine (or trans-2-phenylcyclopropylamine hydrochloride, also known as, 2-PCPA) was purchased from Sigma (St. Louis, Mo. Cat. no. P8511). ULight-labeled streptavidin (ULight-SA, Catalog no. TRF0102), Eu-W1024-labeled anti-methyl-Histone H3 Lysine 4 (H3K4me1-2) Antibody (Catalog no. TRF0402), and LANCE detection buffer 10× (Catalog no. CR97-100) were obtained from PerkinElmer (Montreal, Quebec, Canada). The TR-FRET experiments were carried out in white, low-volume 384-wellplates purchased from PerkinElmer (ProxiPlate_-384 Plus, Catalog no. 6008280).
The TR-FRET signal was measured in the presence both of the bio-H3K4me3 peptide and FLAG-JARID1B by detecting any H3K4me2/1 peptide produced in the assay system. Assays using only the bio-H3K4me2 peptide were served as a positive control. Robust enzymatic progressions were observed by using JARID1B at concentrations ranging from 10 to 30 nM. In a typical TR-FRET experiment, JARID1B was pre-incubated with or without 0.1 uM of test-compounds (containing 1% DMSO final) for 5 min. The enzymatic reactions were initiated by the addition of 500 nM biotinylated H3K4me3 peptide substrate plus 500 uM of 2-OG 25 uM Fe(II) and 2 mM ascorbate. The reaction buffer also contained 50 mM Hepes (pH7.5), 0.01% (v/v) Tween 20, and 50 mM NaCl. The reaction mixture was incubated for 30 min at room temperature before reading on an EnVision plate reader (PerkinElmer, Waltham, Mass.).

T1 sequence (Q9UGL1 whole entry): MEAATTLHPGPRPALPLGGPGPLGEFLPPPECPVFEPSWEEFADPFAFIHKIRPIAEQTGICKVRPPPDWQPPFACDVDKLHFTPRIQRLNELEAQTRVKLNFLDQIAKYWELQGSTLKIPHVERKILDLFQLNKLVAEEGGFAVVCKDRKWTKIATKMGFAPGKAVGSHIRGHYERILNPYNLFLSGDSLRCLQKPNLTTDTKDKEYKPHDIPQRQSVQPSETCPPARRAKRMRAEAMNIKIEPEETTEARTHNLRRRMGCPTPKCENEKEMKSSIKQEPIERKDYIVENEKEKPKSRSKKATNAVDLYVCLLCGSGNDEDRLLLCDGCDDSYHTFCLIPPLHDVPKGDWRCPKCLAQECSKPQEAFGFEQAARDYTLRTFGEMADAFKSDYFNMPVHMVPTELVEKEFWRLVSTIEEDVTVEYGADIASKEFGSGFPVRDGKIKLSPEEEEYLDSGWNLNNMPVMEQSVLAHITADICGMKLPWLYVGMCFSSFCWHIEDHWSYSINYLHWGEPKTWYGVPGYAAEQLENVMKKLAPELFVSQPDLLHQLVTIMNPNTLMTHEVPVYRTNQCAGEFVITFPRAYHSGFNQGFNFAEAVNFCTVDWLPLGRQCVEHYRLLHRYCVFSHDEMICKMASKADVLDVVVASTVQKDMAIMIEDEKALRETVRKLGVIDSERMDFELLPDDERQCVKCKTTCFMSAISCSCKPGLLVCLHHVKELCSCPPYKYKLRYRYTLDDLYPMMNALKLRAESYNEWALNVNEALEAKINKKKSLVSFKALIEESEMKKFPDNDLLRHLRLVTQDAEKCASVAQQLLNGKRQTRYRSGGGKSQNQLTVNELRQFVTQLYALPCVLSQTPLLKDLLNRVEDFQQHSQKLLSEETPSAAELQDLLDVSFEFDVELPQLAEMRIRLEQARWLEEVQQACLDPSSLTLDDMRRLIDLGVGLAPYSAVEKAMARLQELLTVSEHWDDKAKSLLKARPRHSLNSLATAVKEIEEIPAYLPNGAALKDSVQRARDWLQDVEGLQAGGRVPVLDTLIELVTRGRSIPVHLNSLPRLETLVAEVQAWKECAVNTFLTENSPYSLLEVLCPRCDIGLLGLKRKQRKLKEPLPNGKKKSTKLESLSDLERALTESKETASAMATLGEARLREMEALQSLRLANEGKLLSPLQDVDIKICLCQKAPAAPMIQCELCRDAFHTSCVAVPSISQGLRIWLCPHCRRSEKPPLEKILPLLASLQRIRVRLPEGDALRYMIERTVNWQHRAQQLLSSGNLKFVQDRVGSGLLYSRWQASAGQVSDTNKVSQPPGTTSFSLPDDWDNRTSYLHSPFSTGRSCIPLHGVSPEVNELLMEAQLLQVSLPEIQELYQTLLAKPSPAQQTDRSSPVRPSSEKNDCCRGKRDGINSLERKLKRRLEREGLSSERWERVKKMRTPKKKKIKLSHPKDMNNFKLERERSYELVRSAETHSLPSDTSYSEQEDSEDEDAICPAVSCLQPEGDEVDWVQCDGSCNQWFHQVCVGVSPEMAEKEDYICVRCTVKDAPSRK

For the molecule `Cn1cnc(-c2nccc3c(=O)[nH]c(COc4ccc(F)c(Cl)c4)nc23)c1` [Compound 77, 2-((3-chloro-4-fluorophenoxy)methyl)-8-(1-methyl-1H-imidazol-4-yl)pyrido[3,4-d]pyrimidin-4(3H)-one], the inhibition at 0.1 µM lay in the range of 20 to 50%. The value for `O=c1[nH]c(COc2cccc(-c3ccccc3)c2)nc2c(-c3csc(NCCO)n3)nccc12` [Compound 156, 2-(([1,1′-biphenyl]-3-yloxy)methyl)-8-(2-((2-hydroxyethyl)amino)thiazol-4-yl)pyrido[3,4-d]pyrimidin-4(3H)-one] was 20 to 50%; that for `CC(=O)Nc1ccc(-c2cn(-c3nccc4c(=O)[nH]cnc34)nc2N)cc1` [Compound 18, N-(4-(3-amino-1-(4-oxo-3,4-dihydropyrido[3,4-d]pyrimidin-8-yl)-1H-pyrazol-4-yl)phenyl)acetamide] was 20 to 50%. For `CCN(CC)c1nc(-c2nccc3c(=O)[nH]c(COc4ccc(F)c(Cl)c4)nc23)cs1` [Compound 105, 2-((3-chloro-4-fluorophenoxy)methyl)-8-(2-(diethylamino)thiazol-4-yl)pyrido[3,4-d]pyrimidin-4(3H)-one], the inhibition at 0.1 µM was below 20%. In the case of `O=c1[nH]c(COc2ccc(F)c(Cl)c2)nc2c(-c3cccc(N4CCOCC4)n3)nccc12` [Compound 116, 2-((3-chloro-4-fluorophenoxy)methyl)-8-(6-morpholinopyridin-2-yl)pyrido[3,4-d]pyrimidin-4(3H)-one], the inhibition at 0.1 µM is below 20%. The value for `COCCNc1nc(-c2nccc3c(=O)[nH]c(COCc4ccccc4)nc23)cs1` [Compound 146, 2-((benzyloxy)methyl)-8-(2-((2-methoxyethyl)amino)thiazol-4-yl)pyrido[3,4-d]pyrimidin-4(3H)-one] was below 20%; that for `NCCNc1nc(-c2nccc3c(=O)[nH]c(COCc4ccccc4)nc23)cs1` [Compound 149, 8-(2-((2-aminoethyl)amino)thiazol-4-yl)-2-((benzyloxy)methyl)pyrido [3,4-d]pyrimidin-4(3H)-one] was 20 to 50%.

`O=c1[nH]c(COc2cc(Cl)cc(Cl)c2)nc2c(-c3csc(NCCO)n3)nccc12` [Compound 134, 2-((3,5-dichlorophenoxy)methyl)-8-(2-((2-hydroxyethyl)amino)thiazol-4-yl)pyrido[3,4-d]pyrimidin-4(3H)-one]: the inhibition at 0.1 µM was 20 to 50%.

On to `O=c1[nH]c(CCc2ccccc2)nc2c(-c3csc(NC4CCN(Cc5ccccc5)CC4)n3)nccc12` [Compound 164, 8-(2-((1-benzylpiperidin-4-yl)amino)thiazol-4-yl)-2-phenethylpyrido[3,4-d]pyrimidin-4(3H)-one], for which the inhibition at 0.1 µM was at least 50%.

For `O=c1[nH]c(COc2ccc(F)c(Cl)c2)nc2c(-c3csc(NCC(O)CN4CCNCC4)n3)nccc12` (centres unmarked) [Compound 113, 2-((3-chloro-4-fluorophenoxy)methyl)-8-(2-((2-hydroxy-3-(piperazin-1-yl)propyl)amino)thiazol-4-yl)pyrido[3,4-d]pyrimidin-4(3H)-one], the inhibition at 0.1 µM was at least 50%. For the molecule `C[C@H](O)CNc1nc(-c2nccc3c(=O)[nH]c(-c4cc5ccccc5o4)nc23)cs1` [Compound 168, (S)-2-(benzofuran-2-yl)-8-(2-((2-hydroxypropyl)amino)thiazol-4-yl)pyrido[3,4-d]pyrimidin-4(3H)-one], the inhibition at 0.1 µM was below 20%. As for `O=c1[nH]c(COc2ccc(C3CCCC3)cc2)nc2c(-c3csc(NCCO)n3)nccc12` [Compound 159, 2-((4-cyclopentylphenoxy)methyl)-8-(2-((2-hydroxyethyl)amino)thiazol-4-yl)pyrido[3,4-d]pyrimidin-4(3H)-one], the inhibition at 0.1 µM was below 20%. The value for `Nc1nn(-c2nccc3c(=O)[nH]cnc23)cc1-c1ccc(CCCO)cc1` [Compound 19, 8-(3-amino-4-(4-(3-hydroxypropyl)phenyl)-1H-pyrazol-1-yl)pyrido[3,4-d]pyrimidin-4(3H)-one] was 20 to 50%. The value for `Nc1nn(-c2nccc3c(=O)[nH]cnc23)cc1-c1cccc(N2CCNCC2)c1` [Compound 20, 8-(3-amino-4-(3-(piperazin-1-yl)phenyl)-1H-pyrazol-1-yl)pyrido[3,4-d]pyrimidin-4(3H)-one] was at least 50%; that for `Nc1ncc(-c2nccc3c(=O)[nH]c(COc4ccc(F)c(Cl)c4)nc23)s1` [Compound 75, 8-(2-aminothiazol-5-yl)-2-((3-chloro-4-fluorophenoxy)methyl) pyrido[3,4-d]pyrimidin-4(3H)-one] was below 20%. As for `Nc1nn(-c2nccc3c(=O)[nH]cnc23)cc1-c1cnn(Cc2ccccc2)c1` [Compound 28, 8-(3-amino-1′-benzyl-1H,1′H-[4,4′-bipyrazol]-1-yl)pyrido[3,4-d]pyrimidin-4(3H)-one], the figure is at least 50%; as for `C[C@@H](O)CNc1nc(-c2nccc3c(=O)[nH]c(COc4ccc(F)c(Cl)c4)nc23)cs1` [Compound 83, (R)-2-((3-chloro-4-fluorophenoxy)methyl)-8-(2-((2-hydroxypropyl)amino)thiazol-4-yl)pyrido[3,4-d]pyrimidin-4(3H)-one], at least 50%; as for `O=c1[nH]c(COc2ccc(F)c(Cl)c2)nc2c(-c3csc(NC4CCNCC4)n3)nccc12` [Compound 93, 2-((3-chloro-4-fluorophenoxy)methyl)-8-(2-(piperidin-4-ylamino)thiazol-4-yl)pyrido[3,4-d]pyrimidin-4(3H)-one], at least 50%.

Turning to `Cc1ccc(CCNc2nc(-c3nccc4c(=O)[nH]c(COc5ccc(F)c(Cl)c5)nc34)cs2)cc1C` [Compound 112, 2-((3-chloro-4-fluorophenoxy)methyl)-8-(2-((3,4-dimethylphenethyl)amino)thiazol-4-yl)pyrido[3,4-d]pyrimidin-4(3H)-one], the inhibition at 0.1 µM was below 20%. As for `O=c1[nH]c(COCc2ccccc2)nc2c(-c3csc(NCCO)n3)nccc12` [Compound 142, 2-((benzyloxy)methyl)-8-(2-((2-hydroxyethyl)amino)thiazol-4-yl)pyrido[3,4-d]pyrimidin-4(3H)-one], the figure is 20 to 50%; as for `O=c1[nH]cnc2c(-c3csc(NCC4CCN(CCO)CC4)n3)nccc12` [Compound 51, 8-(2-(((1-(2-hydroxyethyl)piperidin-4-yl)methyl)amino)thiazol-4-yl)pyrido[3,4-d]pyrimidin-4(3H)-one], at least 50%. As for `O=c1[nH]cnc2c(-c3csc(NC4CCN(Cc5ccccc5)CC4)n3)nccc12` [Compound 61, 8-(2-((1-benzylpiperidin-4-yl)amino)thiazol-4-yl)pyrido[3,4-d]pyrimidin-4(3H)-one], the figure is 20 to 50%; as for `O=c1[nH]c(COc2ccc(F)cc2)nc2c(-c3csc(NC4CCN(Cc5ccccc5)CC4)n3)nccc12` [Compound 128, 8-(2-((1-benzylpiperidin-4-yl)amino)thiazol-4-yl)-2-((4-fluorophenoxy)methyl) pyrido[3,4-d]pyrimidin-4(3H)-one], below 20%; as for `O=c1[nH]cnc2c(-n3cc(-c4cccnc4)cn3)nccc12` [Compound 12, 8-(4-(pyridin-3-yl)-1H-pyrazol-1-yl)pyrido[3,4-d]pyrimidin-4(3H)-one], below 20%. Turning to `CN1CCCC1CCNc1nc(-c2nccc3c(=O)[nH]c(COc4ccc(F)c(Cl)c4)nc23)cs1` (centres unmarked) [Compound 92, 2-((3-chloro-4-fluorophenoxy)methyl)-8-(2-((2-(1-methylpyrrolidin-2-yl)ethyl)amino)thiazol-4-yl)pyrido[3,4-d]pyrimidin-4(3H)-one], the inhibition at 0.1 µM is at least 50%. As for `Nc1nn(-c2nccc3c(=O)[nH]cnc23)cc1-c1cnn(CCO)c1` [Compound 26, 8-(3-amino-1′-(2-hydroxyethyl)-1H,1′H-[4,4′-bipyrazol]-1-yl)pyrido[3,4-d]pyrimidin-4(3H)-one], the inhibition at 0.1 µM fell in the range of 20 to 50%.

Usually inhibition stands for the relative decrease from the control value, in per cent.

The values above are taken from patent US20170057955A1, “Pyridopyrimidinone Compounds for Modulating the Catalytic Activity of Histone Lysine Demethylases (KDMs)” (Dong-A Socio Holdings Co., Ltd., priority 2015, published 2017).
